“And” between values parts separate entries of the source, which are not always exact repeats. Identical values can stand only once.
Assays:
[1] = tested on: KRAS^G12X PDAC, CRC and NSCLC xenograft models; test: Panel of 15 KRAS^G12X CDX and PDX xenograft models; type: in vivo, mouse; settings: for % Tumor Volume Change: PSN-1, BALB/c nude mice, 10 mg/kg po qd, 10 mg/kg
Method: Xenograft studies were conducted at GenenDesign, Pharmaron, Wuxi AppTec, the laboratory of P. Lito, and the laboratory of C. Ambrogio. […] All procedures related to animal handling, care and treatment were conducted in compliance with all applicable regulations and guidelines of the relevant Institutional Animal Care and Use Committee (IACUC). […] Experimental details are supplied in the Supplementary Methods.

[2] = tested on: KRAS(G12C)-mutated PDX model from a NSCLC patient relapsed on sotorasib; test: Sotorasib resistance xenograft study (KRAS^G12C NSCLC PDX); type: in vivo, mouse; settings: 10 mg kg^−1 daily oral, day 17 of treatment
KRAS WT = KRAS WT (Homo sapiens, UniProt P01116+P62937); test: RAS binding affinity of compound-bound CYPA (Kd2), SPR; design: made in house; host or cells: BL21(DE3) Escherichia coli; settings: steady state SPR, (95% CI)
KRAS^G12R = KRAS^G12R (Homo sapiens, UniProt P01116+P62937, G12R); test: as above; design: made in house; host or cells: BL21(DE3) Escherichia coli; settings: steady state SPR, (95% CI)
KRAS^G12V [3] = target: T1, KRAS^G12V (Homo sapiens, UniProt P01116+P62937, G12V); test: Cellular RAS–RAF (CRAF RBD) disruption, nano-BRET in U2OS cells; type: cell-based; design: expressed in transfected cells; host or cells: U2OS PPIA-KO; Cellular RAS-RAF disruption G12V / Cellular nano-BRET G12V: scale not given here
Excerpt: KRAS4B, or other small GTPases, containing the indicated mutations were cloned in pNLF-N or pHTN plasmids for expression with an N-terminal nanoluciferase or HaloTag fusion, respectively. […] The following day, the cells were collected by Trypsin and reseeded in a white tissue culture-treated 96-well plate in OptiMem phenol red-free medium (Gibco) containing 4% FBS and a 1:1,000 dilution of NanoBRET 618 HaloTag ligand (Promega). For endpoint concentration response curves, vivazine nanoluciferase substrate was added to 1× concentration in OptiMem phenol red-free medium with 4% FBS. Varying concentrations of inhibitor were added and incubated for 1 or 4 h before the nano-BRET signal was measured on a Perkin Elmer Envision plate reader. For kinetic assays, endurazine nanoluciferase substrate was used in place of vivazine, and the plate was placed in a Cytation5 multi-mode reader pre-equilibrated to 37 °C and 5% CO2.

KRAS^G12V [4] = target: T1, KRAS^G12V; test: RAS binding affinity of compound-bound CYPA (Kd2), SPR; design: His6-TEV (N); made in house; host or cells: BL21(DE3) Escherichia coli; settings: steady state, (95% CI)

SMILES: CCn1c(-c2cc(N3CCN(C4CC4)CC3)cnc2[C@H](C)OC)c2c3cc(ccc31)-c1csc(n1)C[C@H](NC(=O)[C@H]1[C@@H]3COC[C@@H]31)C(=O)N1CCC[C@H](N1)C(=O)OCC(C)(C)C2 [RMC-7977]
- % Tumor Volume Change ([1]; day 0, individual animals): 179% and 166%
- % Tumor Volume Change ([1]; day 3, individual animals): 154% and 97%
- % Tumor Volume Change ([1]; day 7, individual animals): 134% and 82%
- % Tumor Volume Change ([1]; day 10, individual animals): 126% and 70%
- % Tumor Volume Change ([1]; day 14, individual animals): 117% and 66%
- % Tumor Volume Change ([1]; day 17, individual animals): 116% and 65%
- % Tumor Volume Change ([1]; day 21, individual animals): 121% and 60%
- % Tumor Volume Change ([1]; day 24, individual animals): 131% and 55%
- % Tumor Volume Change ([1]; day 28, individual animals): 132%
- median time to tumour doubling ([1]; treatment up to 90 days, Kaplan–Meier analysis): did not reach a median time to tumour doubling
- inhibition of tumour growth [2]: 90%
- Kd (KRAS WT): 116 nM
- Kd (KRAS^G12R): 272 nM
- EC50 (KRAS^G12V [3]; KRAS^G12V, CRAF RBD, nano-BRET, (95% CI)): 7.66 nM
- Cellular RAS-RAF disruption G12V (KRAS^G12V [3]; RMC-7977 0.0254 nM): 100.00
- Cellular RAS-RAF disruption G12V (KRAS^G12V [3]; RMC-7977 0.05 nM): 95.09 and 96.3702
- Cellular RAS-RAF disruption G12V (KRAS^G12V [3]; RMC-7977 0.08 nM): 99.62
- Cellular RAS-RAF disruption G12V (KRAS^G12V [3]; RMC-7977 0.23 nM): 93.81
- Cellular RAS-RAF disruption G12V (KRAS^G12V [3]; RMC-7977 0.46 nM): 63.26 and 77.9214
- Cellular RAS-RAF disruption G12V (KRAS^G12V [3]; RMC-7977 2.06 nM): 66.75
- Cellular RAS-RAF disruption G12V (KRAS^G12V [3]; RMC-7977 4.12 nM): 17.09 and 32.4499
- Cellular RAS-RAF disruption G12V (KRAS^G12V [3]; RMC-7977 12.35 nM): 8.26 and 13.953
- Cellular RAS-RAF disruption G12V (KRAS^G12V [3]; RMC-7977 18.52 nM): 13.89
- Cellular RAS-RAF disruption G12V (KRAS^G12V [3]; RMC-7977 37.04 nM): 4 and 4.5731
- Cellular RAS-RAF disruption G12V (KRAS^G12V [3]; RMC-7977 55.56 nM): 3.90
- Cellular RAS-RAF disruption G12V (KRAS^G12V [3]; RMC-7977 111.11 nM): 1.99 and 1.6717
- Cellular RAS-RAF disruption G12V (KRAS^G12V [3]; RMC-7977 166.67 nM): 0.38
- Cellular RAS-RAF disruption G12V (KRAS^G12V [3]; RMC-7977 500.00 nM): 0.05
- Cellular nano-BRET G12V (KRAS^G12V [3]; calculated RMC-7977:CYPA complexes 1.95 nM): 99.62
- Cellular nano-BRET G12V (KRAS^G12V [3]; calculated RMC-7977:CYPA complexes 34.93 nM): 41.01 and 56.3646
- Cellular nano-BRET G12V (KRAS^G12V [3]; calculated RMC-7977:CYPA complexes 52.21 nM): 66.75
- Cellular nano-BRET G12V (KRAS^G12V [3]; calculated RMC-7977:CYPA complexes 153.42 nM): 36.46
- Cellular nano-BRET G12V (KRAS^G12V [3]; calculated RMC-7977:CYPA complexes 297.71 nM): 8.26 and 13.953
- Cellular nano-BRET G12V (KRAS^G12V [3]; calculated RMC-7977:CYPA complexes 433.65 nM): 13.89
- Cellular nano-BRET G12V (KRAS^G12V [3]; calculated RMC-7977:CYPA complexes 798.08 nM): 4 and 4.5731
- Cellular nano-BRET G12V (KRAS^G12V [3]; calculated RMC-7977:CYPA complexes 1814.88 nM): 1.99 and 1.6717
- Cellular nano-BRET G12V (KRAS^G12V [3]; calculated RMC-7977:CYPA complexes 2304.15 nM): 0.38
- Cellular nano-BRET G12V (KRAS^G12V [3]; calculated RMC-7977:CYPA complexes 3597.12 nM): 0.05
- Kd (KRAS^G12V [4]): 85 nM
